These results are taken from paper PMC9133036 (Nature Communications, 2022).

pEC50: −log10 of the molar value. Like-named read-outs stand apart in the source and are kept apart here. A value given as a limit tells only on which side of the number the result lay.

Common to all, as to type: cell-based
Assay [1] concerns the target T1, OX1R S103T/A127T (Homo sapiens, UniProt O43613, A127T/S103T).
T1 construct: FLAG; expressed in transfected cells; host or cells: HEK293
T1 sequence (O43613 1-425 S103T/A127T): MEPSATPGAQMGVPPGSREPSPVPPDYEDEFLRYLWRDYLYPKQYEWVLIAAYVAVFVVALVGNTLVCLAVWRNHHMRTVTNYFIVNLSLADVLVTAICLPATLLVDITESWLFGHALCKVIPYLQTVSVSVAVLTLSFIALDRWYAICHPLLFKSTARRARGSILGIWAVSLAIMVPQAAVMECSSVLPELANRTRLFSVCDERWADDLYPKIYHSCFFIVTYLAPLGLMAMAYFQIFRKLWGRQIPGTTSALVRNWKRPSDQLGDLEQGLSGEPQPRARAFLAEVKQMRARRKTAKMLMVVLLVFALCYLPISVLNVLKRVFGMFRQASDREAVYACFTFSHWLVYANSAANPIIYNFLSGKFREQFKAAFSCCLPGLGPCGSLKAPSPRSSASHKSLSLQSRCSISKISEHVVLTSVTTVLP
The experiment in a line: IP accumulation assay, OX1R S103T/A127T. The source says: The IP assay was adapted from a prior precedent. HEK293 cells were maintained in DMEM-high glucose (Millipore Sigma) supplemented with 5% fetal bovine serum (Corning) and penicillin-streptomycin (Millipore Sigma). Receptor constructs used were the full-length wild-type (or mutant) human OX1R and OX2R sequences cloned into pCDNA3. To enhance the Emax in the IP assay, a plasmid encoding full-length human Gαq subunit[66] was co-transfected into HEK293 cells with plasmids encoding orexin receptor constructs using Lipofectamine 3000 (Thermo Fisher). 24 h after transfection, the cells were plated on poly-D-lysine coated (Millipore Sigma) tissue culture-treated 96 well white plates with clear bottoms (Perkin Elmer) at 30,000 cells per well in Inositol-free DMEM (MP Biomedicals) supplemented with 5% fetal bovine serum, 4 mM L-glutamine (Millipore Sigma), penicillin-streptomycin, and about 5 uCi (5 ul) per ml myo-[2-3H] inositol (Perkin Elmer). The following day, the media was replaced with agonists that were diluted in HBSS (Millipore Sigma) containing 10 mM lithium chloride (Millipore Sigma) and incubated at 37 °C for 45 min. Then agonists were removed and cells were lysed on ice for 30 min with 10 mM formic acid (Millipore Sigma). 1.25 mg of poly-lysine coated YSI SPA beads (Perkin Elmer) was added to each well. The plates were mixed on an orbital shaker for 30 min. The plates were read on a MicroBeta scintillation counter (Perkin Elmer) the following day. IP accumulation assays on different constructs were performed in n ≥ 3 independent experiments (each done in duplicate), where n is shown in Supplementary Table 2.

The target of assay [2] is T2, OX2R W120A (Homo sapiens, UniProt O43614, W120A).
T2 construct: expressed in transfected cells; host or cells: CHO-K1 stably expressing EA β-arrestin2
The experiment in a line: β-arrestin PathHunter assay, OX2R W120A. The note with it: β-arrestin recruitment. As for the experimental part:
(§1) β-Arrestin recruitment activity was measured by using the PathHunter system (DiscoveRX) according to the manufacturer’s instruction. Receptor constructs used were the full-length wild-type (or mutant) human OX2R sequences cloned into pCMV-ProLink (DiscoveRX). CHO-K1 cells stably expressing EA β-arrestin2 (DiscoveRX) were plated on 384 well white plates (Thermo Fisher) at 4000 cells/well in HamF12 (Wako Pure Chemical Industries) supplemented with 10% fetal bovine serum (Corning) and penicillin-streptomycin (Wako Pure Chemical Industries) and incubated overnight at 37 °C under 5% CO2. Cells were transfected with plasmids encoding wild type or each mutant ProLink-tagged human OX2R using FuGENE HD (Promega). […] Detection reagent was added and incubated for 1 h at room temperature. Luminescent signal was detected using an EnVision plate reader (PerkinElmer). β-arrestin assays on different constructs were performed in two or three independent experiments (each done in quadruplicate). Dose response curves (shown in Supplementary Fig. 8) were fitted to the three-parameter model ‘log(agonist) vs response’ in GraphPad Prism to determine pEC50 values.

For assay [3], the target named is T3, OX2R Y317A (Homo sapiens, UniProt O43614, Y317A).
T3 construct: expressed in transfected cells; host or cells: CHO-K1 stably expressing EA β-arrestin2
T3 sequence (O43614 1-444 Y317A): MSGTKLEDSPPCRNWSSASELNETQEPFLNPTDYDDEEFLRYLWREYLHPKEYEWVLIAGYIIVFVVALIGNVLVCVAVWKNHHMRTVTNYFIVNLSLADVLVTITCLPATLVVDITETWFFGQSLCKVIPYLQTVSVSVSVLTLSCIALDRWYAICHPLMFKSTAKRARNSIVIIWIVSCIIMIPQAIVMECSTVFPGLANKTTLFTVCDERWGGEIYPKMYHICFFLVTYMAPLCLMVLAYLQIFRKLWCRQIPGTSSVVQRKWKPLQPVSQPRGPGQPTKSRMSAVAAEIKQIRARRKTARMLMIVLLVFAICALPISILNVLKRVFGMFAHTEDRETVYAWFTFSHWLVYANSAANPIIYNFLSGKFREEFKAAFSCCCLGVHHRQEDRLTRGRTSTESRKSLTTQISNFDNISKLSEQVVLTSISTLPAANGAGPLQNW
Description: β-arrestin PathHunter assay, OX2R Y317A. Here is the method: as §1

The target of assay [4] is T4, OX2R H350A (Homo sapiens, UniProt O43614, H350A).
T4 construct: expressed in transfected cells; host or cells: CHO-K1 stably expressing EA β-arrestin2
The experiment in a line: β-arrestin PathHunter assay, OX2R H350A. The conditions noted are these: β-arrestin recruitment. As for the experimental part:
as §1
A general note: Recruitment of arrestin is a read-out of receptor activation apart from second messengers.

The target in assay [5] is T5, OX2R V353A (Homo sapiens, UniProt O43614, V353A).
T5 construct: expressed in transfected cells; host or cells: CHO-K1 cells stably expressing EA β-arrestin2 (DiscoveRX), transiently transfected with pCMV-ProLink OX2R
Description: β-arrestin PathHunter assay, OX2R V353A. The conditions noted are these: β-arrestin recruitment. Here is the method: as §1

T2 sequence (O43614 whole entry W120A): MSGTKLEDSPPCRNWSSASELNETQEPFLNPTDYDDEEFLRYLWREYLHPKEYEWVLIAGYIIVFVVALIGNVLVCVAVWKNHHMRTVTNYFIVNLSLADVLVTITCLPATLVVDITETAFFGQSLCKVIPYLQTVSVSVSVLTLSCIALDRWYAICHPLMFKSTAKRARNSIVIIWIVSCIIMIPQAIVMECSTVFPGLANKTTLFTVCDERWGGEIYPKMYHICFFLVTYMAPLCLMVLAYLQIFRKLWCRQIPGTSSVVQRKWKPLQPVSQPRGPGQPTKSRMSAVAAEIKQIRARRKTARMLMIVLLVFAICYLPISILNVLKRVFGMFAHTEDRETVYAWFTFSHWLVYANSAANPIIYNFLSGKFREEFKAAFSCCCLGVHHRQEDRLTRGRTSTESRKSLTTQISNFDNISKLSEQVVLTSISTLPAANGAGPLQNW
T4 sequence (O43614 whole entry H350A): as the sequence (O43614 whole entry W120A) above, with A120W, H350A counted along it
T5 sequence (O43614 whole entry V353A): as the sequence (O43614 whole entry W120A) above, with A120W, V353A counted along it
T5 sequence (P32121 whole entry partner): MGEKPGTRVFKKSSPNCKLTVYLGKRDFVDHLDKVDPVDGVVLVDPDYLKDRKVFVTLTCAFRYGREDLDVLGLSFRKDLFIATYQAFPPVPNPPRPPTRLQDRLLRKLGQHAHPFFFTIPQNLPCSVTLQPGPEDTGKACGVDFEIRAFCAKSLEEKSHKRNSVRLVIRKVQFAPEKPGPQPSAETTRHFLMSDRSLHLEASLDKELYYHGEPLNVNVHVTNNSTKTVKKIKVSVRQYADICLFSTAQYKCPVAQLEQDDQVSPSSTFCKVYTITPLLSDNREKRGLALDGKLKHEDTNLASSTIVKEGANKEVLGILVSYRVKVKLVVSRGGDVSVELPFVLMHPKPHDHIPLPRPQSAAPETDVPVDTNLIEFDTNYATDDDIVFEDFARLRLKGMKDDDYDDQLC

As for `COC(=O)N1CCC[C@H](NS(C)(=O)=O)[C@@H]1CO[C@H]1CC[C@@H](c2ccccc2)CC1` [TAK-925, methyl (2R,3S)−3-[(methylsulfonyl)amino]−2-{[(cis−4-phenylcyclohexyl)oxy]methyl}piperidine-1-carboxylate], the activation at 100 µM in assay [1] (0.75 h, TAK-925 conc (log, M) -4.00) is 90.6%. The molecule further gave an activation at 33.1 µM in assay [1] (0.75 h, TAK-925 conc (log, M) -4.48) of 102%. In assay [1] (0.75 h, TAK-925 conc (log, M) -4.95), this molecule displayed an activation at 11.2 µM of 99.6%. Besides, in assay [1] (0.75 h, TAK-925 conc (log, M) -5.43), the activation at 3.72 µM was determined as 94.2%. This molecule displayed an activation at 1.23 µM in assay [1] (0.75 h, TAK-925 conc (log, M) -5.91) of 81.6%. Also, the activation at 0.407 µM in assay [1] (0.75 h, TAK-925 conc (log, M) -6.39) turned out to be 58.2%. Also, the activation at 0.138 µM in assay [1] (0.75 h, TAK-925 conc (log, M) -6.86) amounted to 26.9%. Further, in assay [1] (0.75 h, TAK-925 conc (log, M) -7.82), the activation at 0.0151 µM was 6.39%. Moreover, the pEC50 is 6.52 in assay [1] (IP accumulation); < 4.52 in assay [2] (read-out: EC50); < 4.52 in assay [3] (β-arrestin recruitment, read-out: EC50); 5.32 in assay [4]; 5.26 in assay [5]. For the same molecule, the Emax in assay [1] (normalized to OX1R S103T/A127T Emax) is listed as 100. The EC50 is > 30.2 µM in assay [2] (read-out: pEC50 (converted)) and > 30.2 µM in assay [3] (β-arrestin recruitment, pEC50 ± SEM, read-out: pEC50 (converted)). For the same molecule, in assay [3], the “β-arrestin recruitment, change on mutation of Tyr317” value is on record as “large reductions”.

As a reminder, the pEC50 is the negative decadic logarithm of the EC50, by convention in mol/L.
